# From US20050009840A1 (SUGEN, INC., priority 2003, published 2005)
# pIC50: −log10 of the molar value.
# Molecular target: T1, Met kinase domain (GST fusion protein) (Homo sapiens, UniProt P08581)
# T1 construct: Purified GST fusion protein containing the Met kinase domain
# Experiment: Met transphosphorylation assay (ELISA, poly(glu-tyr) substrate);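 further: Cell-free ELISA with plate-bound poly(Glu:Tyr 4:1) phosphorylated by GST-fused Met kinase domain plus ATP and Mn2+, phosphotyrosine detected by anti-phosphotyrosine antibody with HRP and ABTS read-out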
# Assay type: biochemical
# Conditions: Table 2; read-out: Met IC50
# Protocol: General procedure is as follows: a compound is introduced to cells expressing the test kinase, either naturally or recombinantly, for a selected period of time after which, if the test kinase is a receptor, a ligand known to activate the receptor is added. The cells are lysed and the lysate is transferred to the wells of an ELISA plate previously coated with a specific antibody recognizing the substrate of the enzymatic phosphorylation reaction. Non-substrate components of the cell lysate are washed away and the amount of phosphorylation on the substrate is detected with an antibody specifically recognizing phosphotyrosine compared with control cells that were not contacted with a test compound.
# Met Transphosphorylation Assay
# This assay is used to measure phosphotyrosine levels on a poly(glutamic acid:tyrosine, 4:1) substrate as a means for identifying agonists/antagonists of met transphosphorylation of the substrate.
# PBS, Gibco Catalog # 450-1300EB • 4. 50 mM HEPES • 5. […] Purified GST fusion protein containing the Met kinase domain, SUGEN, Inc. • 7. TBST Buffer. • 8. 10% aqueous (MilliQue H2O) DMSO. • 9. […] 2× Kinase Dilution Buffer: for 100 mL, mix 10 mL 1M HEPESat pH 7.5 with 0.4 mL 5% BSA/PBS, 0.2 mL 0.1 M sodium orthovanadate and 1 mL 5M sodium chloride in 88.4 mL dH2O. • 11. 4× ATP Reaction Mixture: for 10 mL, mix 0.4 mL 1 M manganese chloride and 0.02 mL 0.1 M ATP in 9.56 mL dH2O. • 12. 4× Negative Controls Mixture: for 10 mL, mix 0.4 mL 1 M manganese chloride in 9.6 mL dH2O. • 13. […] 500 mM EDTA. • 15. Antibody Dilution Buffer: for 100 mL, mix 10 mL 5% BSA/PBS, 0.5 mL 5% Carnation® Instant Milk in PBS and 0.1 mL 0.1 M sodium orthovanadate in 88.4 mL TBST. • 16. Rabbit polyclonal antophosphotyrosine antibody, SUGEN, Inc. • 17. Goat anti-rabbit horseradish peroxidase conjugated antibody, Biosource, Inc. • 18. ABTS Solution: for 1 L, mix 19.21 g citric acid, 35.49 g Na2HPO4 and 500 mg ABTS with sufficient dH2O to make 1 L. • 19. ABTS/H2O2: mix 15 mL ABST solution with 2μL H2O2 five minutes before use. • 20. 0.2 M HCl Procedure: • 1. Coat ELISA plates with 2 μg Poly(Glu-Tyr) in 100 μL PBS, hold-overnight at 4° C. • 2. Block plate with 150 μL of 5% BSA/PBS for 60 min. • 3. Wash plate twice with PBS then once with 50 mM Hepes buffer pH 7.4. • 4. Add 50 μl of the diluted kinase to all wells. (Purified kinase is diluted with Kinase Dilution Buffer. Final concentration should be 10 ng/well.) • 5. Add 25 μL of the test compound (in 4% DMSO) or DMSO alone (4% in dH2O) for controls to plate. • 6. Incubate the kinase/compound mixture for 15 minutes. • 7. Add 25 μL of 40 mM MnCl2 to the negative control wells. • 8. Add 25 μL ATP/MnCl2 mixture to the all other wells (except the negative controls). Incubate for 5 min. • 9. Add 25 μL 500 mM EDTA to stop reaction. • 10. Wash plate 3× with TBST. • 11. Add 100 μL rabbit polyclonal anti-Ptyr diluted 1:10,000 in Antibody Dilution Buffer to each well. Incubate, with shaking, at room temperature for one hour. • 12. Wash plate 3× with TBST. • 13. […] Add 100 μL per well and incubate at room temperature, with shaking, for one hour. • 14. Wash plate 1× with PBS. • 15. Add 100 μl of ABTS/H2O2 solution to each well. • 16. If necessary, stop the development reaction with the addition of 100 μl of 0.2M HCl per well. • 17.
# T1 sequence (P08581 1078-1345 limits assumed): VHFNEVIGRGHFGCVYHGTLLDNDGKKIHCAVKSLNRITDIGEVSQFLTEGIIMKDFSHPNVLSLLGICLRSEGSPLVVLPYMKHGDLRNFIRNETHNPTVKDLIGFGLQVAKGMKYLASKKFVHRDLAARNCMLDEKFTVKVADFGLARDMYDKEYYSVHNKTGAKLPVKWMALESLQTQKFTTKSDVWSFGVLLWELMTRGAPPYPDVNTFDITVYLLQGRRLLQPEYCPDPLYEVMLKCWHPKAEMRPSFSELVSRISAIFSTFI
row,pIC50,Compound
1,7.05,"CC(Oc1cc(-c2ccc(C(=O)N3CC[C@@H](N)C3)cc2)cnc1N)c1c(F)ccc(F)c1Cl (stereo partly drawn) [Example I-334, (4-{6-Amino-5-[1-(2-chloro-3,6-difluoro-phenyl)-ethoxy]-pyridin-3-yl}-phenyl)-((R)-3-amino-pyrrolidin-1-yl)-methanone]"
2,7.05,"CC(Oc1cc(-c2ccc(C(=O)N3C[C@@H](C)N[C@@H](C)C3)cc2)cnc1N)c1c(F)ccc(F)c1Cl (stereo partly drawn) [Example I-335, (4-{6 Amino-5-[1-(2-chloro-3,6-difluoro-phenyl)-ethoxy]-pyridin-3-yl}-phenyl)-((3R,5S)-3,5-dimethyl-piperazin-1-yl)-methanone]"
3,7.11,"CC(Oc1cc(-c2ccc(C(=O)N3CCN(C)CC3)cc2)cnc1N)c1c(F)ccc(F)c1Cl (stereo not drawn) [Example I-338, (4-{6-Amino-5-[1-(2-chloro-3,6-difluoro-phenyl)-ethoxy]-pyridin-3-yl}-phenyl)-(4-methyl-piperazin-1-yl)-methanone]"
4,7.12,"CC(Oc1cc(-c2ccc(C(=O)N3CC[C@H](N)C3)cc2)cnc1N)c1c(F)ccc(F)c1Cl (stereo partly drawn) [Example I-341, (4-{6-Amino-5-[1-(2-chloro-3,6-difluoro-phenyl)-ethoxy]-pyridin-3-yl}-phenyl)-((S)-3-amino-pyrrolidin-1-yl)-methanone]"
5,6.80,CC(Oc1cc(-c2cccc(C(=O)N3C[C@@H](C)N[C@@H](C)C3)c2)cnc1N)c1c(F)ccc(F)c1Cl (stereo partly drawn) [Example I-343]
6,6.92,"CC(Oc1cc(-c2cccc(C(=O)N3CC[C@@H](N)C3)c2)cnc1N)c1c(F)ccc(F)c1Cl (stereo partly drawn) [Example I-344, (3-{6-Amino-5-[1-(2-chloro-3,6-difluoro-phenyl)-ethoxy]-pyridin-3-yl}-phenyl)-((R)-3-amino-pyrrolidin-1-yl)-methanone]"
7,6.70,"CC(Oc1cc(-c2cccc(C(=O)NC3CCN(C)CC3)c2)cnc1N)c1c(F)ccc(F)c1Cl (stereo not drawn) [Example I-345, 3-{6-Amino-5-[1-(2-chloro-3,6-difluoro-phenyl)-ethoxy]-pyridin-3-yl}-N-(1-methyl-piperidin-4-yl)-benzamide]"
8,6.72,"CC(Oc1cc(-c2cccc(C(=O)N3CCN(C)CC3)c2)cnc1N)c1c(F)ccc(F)c1Cl (stereo not drawn) [Example I-346, (3-{6-Amino-5-[1-(2-chloro-3,6-difluoro-phenyl)-ethoxy]-pyridin-3-yl}-phenyl)-(4-methyl-piperazin-1-yl)-pnl methanone]"
9,6.68,"CC(Oc1cc(-c2cccc(C(=O)NCCCN3CCCC3)c2)cnc1N)c1c(F)ccc(F)c1Cl (stereo not drawn) [Example I-347, 3-{6-Amino-5-[1-(2-chloro-3,6-difluoro-phenyl)-ethoxy]-pyridin-3-yl}-N-(3-pyrrolidin-1-yl-propyl)-benzamide]"
10,6.70,"CC(Oc1cc(-c2cccc(C(=O)NCCN3CCCC3)c2)cnc1N)c1c(F)ccc(F)c1Cl (stereo not drawn) [Example I-348, 3-{6-Amino-5-[1-(2-chloro-3,6-difluoro-phenyl)-ethoxy]-pyridin-3-yl}-N-(2-pyrrolidin-1-yl-ethyl)-benzamide]"
11,6.89,"CC(Oc1cc(-c2cccc(C(=O)N3CC[C@H](N)C3)c2)cnc1N)c1c(F)ccc(F)c1Cl (stereo partly drawn) [Example I-349, (3-{6-Amino-5-[1-(2-chloro-3,6-difluoro-phenyl)-ethoxy]-pyridin-3-yl}-phenyl)-((S)-3-amino-pyrrolidin-1-yl)-methanone]"
12,6.41,"CC(Oc1cc(-c2cccc(C(=O)NCCN3CCOCC3)c2)cnc1N)c1c(F)ccc(F)c1Cl (stereo not drawn) [Example I-350, 3-{6-Amino-5-[1-(2-chloro-3,6-difluoro-phenyl)-ethoxy]-pyridin-3-yl}-N-(2-morpholin-4-yl-ethyl)-benzamide]"
13,6.64,CC(Oc1cc(-c2cccc(C(=O)N3CCC[C@@H]3CN3CCCC3)c2)cnc1N)c1c(F)ccc(F)c1Cl (stereo partly drawn) [Example I-351]
14,6.82,CC(Oc1cc(-c2cccc(C(=O)N3CCC[C@H]3CN3CCCC3)c2)cnc1N)c1c(F)ccc(F)c1Cl (stereo partly drawn) [Example I-352]

# The remaining lines, values behind:
row,Compound,pIC50
1,"CC(Oc1cc(-c2ccc(C(=O)NC3CCN(C)CC3)cc2)cnc1N)c1c(F)ccc(F)c1Cl (stereo not drawn) [Example I-332, 4-{6-Amino-5-[1-(2-chloro-3,6-difluoro-phenyl)-ethoxy]-pyridin-3-yl}-N-(1-methyl-piperidin-4-yl)-benzamide]",7.10
2,"CC(Oc1cc(-c2ccc(C(=O)NCCCN3CCCC3)cc2)cnc1N)c1c(F)ccc(F)c1Cl (stereo not drawn) [Example I-336, 4-{6-Amino-5-[1-(2-chloro-3,6-difluoro-phenyl)-ethoxy]-pyridin-3-yl}-N-(3-pyrrolidin-1-yl-propyl)-benzamide]",7.05
3,"CC(Oc1cc(-c2ccc(C(=O)NCCN3CCCC3)cc2)cnc1N)c1c(F)ccc(F)c1Cl (stereo not drawn) [Example I-340, 4-{6-Amino-5-[1-(2-chloro-3,6-difluoro-phenyl)-ethoxy]-pyridin-3-yl}-N-(2-pyrrolidin-1-yl-ethyl)-benzamide]",7.07
4,"CC(Oc1cc(-c2ccc(OCCN3CCOCC3)cc2)cnc1N)c1c(F)ccc(F)c1Cl (stereo not drawn) [Example I-353, 3-[1-(2-Chloro-3,6-difluoro-phenyl)-ethoxy]-5-[4-(2-morpholin-4-yl-ethoxy)-phenyl]-pyridin-2-ylamine]",6.64
5,"CC(Oc1cc(-c2cccc(OCCN3CCOCC3)c2)cnc1N)c1c(F)ccc(F)c1Cl (stereo not drawn) [Example I-354, 3-[1-(2-Chloro-3,6-difluoro-phenyl)-ethoxy]-5-[3-(2-morpholin-4-yl-ethoxy)-phenyl]-pyridin-2-ylamine]",6.66
6,"CC(Oc1cc(-c2ccc(OCCN3CCCC3)cc2)cnc1N)c1c(Cl)ccc(F)c1Cl (stereo not drawn) [Example I-355, 3-[1-(2,6-Dichloro-3-fluoro-phenyl)-ethoxy]-5-[4-(2-pyrrolidin-1-yl-ethoxy)-phenyl]-pyridin-2-ylamine]",7.17
7,CC(Oc1cc(-c2ccc(OCCC3CCCN3C)cc2)cnc1N)c1c(Cl)ccc(F)c1Cl (stereo not drawn) [Example I-356],7.10
8,"CC(Oc1cc(-c2ccc(OCCN3CCOCC3)cc2)cnc1N)c1c(Cl)ccc(F)c1Cl (stereo not drawn) [Example I-357, 3-[1-(2,6-Dichloro-3-fluoro-phenyl)-ethoxy]-5-[4-(2-morpholin-4-yl-ethoxy)-phenyl]-pyridin-2-ylamine]",6.89
9,"CC(Oc1cc(-c2cccc(OCCN3CCOCC3)c2)cnc1N)c1c(Cl)ccc(F)c1Cl (stereo not drawn) [Example I-358, 3-[1-(2,6-Dichloro-3-fluoro-phenyl)-ethoxy]-5-[3-(2-morpholin-4-yl-ethoxy)-phenyl]-pyridin-2-ylamine]",6.66
10,"CC(Oc1cc(-c2ccc(OCC(O)CN3CCOCC3)cc2)cnc1N)c1c(Cl)ccc(F)c1Cl (stereo not drawn) [Example I-359, 1-(4-{6-Amino-5-[1-(2,6-dichloro-3-fluoro-phenyl)-ethoxy]-pyridin-3-yl}-phenoxy)-3-morpholin-4-yl-propan-2-ol]",7.35
11,"CCN(CC)CCOc1ccc(-c2cnc(N)c(OC(C)c3c(Cl)ccc(F)c3Cl)c2)cc1 (stereo not drawn) [Example I-360, 3-[1-(2,6-Dichloro-3-fluoro-phenyl)-ethoxy]-5-[4-(2-diethylamino-ethoxy)-phenyl]-pyridin-2-ylamine]",7.48
12,"CC(Oc1cc(-c2ccc(OCC3CCCN(C)C3)cc2)cnc1N)c1c(Cl)ccc(F)c1Cl (stereo not drawn) [Example I-361, 3-[1-(2,6-Dichloro-3-fluoro-phenyl)-ethoxy]-5-[4-(1-methyl-piperidin-3-ylmethoxy)-phenyl]-pyridin-2-ylamine]",7.37
13,CC(Oc1cc(-c2ccc(OCCN(C(C)C)C(C)C)cc2)cnc1N)c1c(Cl)ccc(F)c1Cl (stereo not drawn) [Example I-362],7.28
